Results on three compounds are retold here after patent publication US6767916B2 (Indena S.p.A., priority 1999, dated 2004).

Data set [1] is described as follows: cytotoxicity of compounds tested alone against drug-resistant cancer cells. The class given is cell-based. As to conditions: human, MDA-435/LCC-MDR drug-resistant cancer cells, read-out: cytotoxicity IC50, compound alone. As for the experimental part:
Compounds VIB 106 and VIB 122 were tested for their cytotoxicity against drug-resistant cancer cells, both alone, and in combination with paclitaxel.
The treatment consisted of concurrent exposure of MDA-435/LCC-MDR cells to paclitaxel in the presence or absence of the compounds reversing agent (1 μM) for 72 h in vitro. Assessment of cytotoxicity, i.e. cell growth inhibition, was determined according to the methods of Skehan, et al. as discussed in J. Nat. Cancer Inst., 82, 1107,1990. Briefly, cells were plated between 400 and 1200 cells/well in 96 well plates and incubated at 37° C. for 15-18 h prior to drug addiction to allow attachment of cells. Compounds were solubilized in 100% DMSO and further diluted in RPMI-1640 containing 10 mM HEPES. After a 72 h incubation, 100 μl of ice-cold 50% TCA was added to each well and incubated for 1 h at 4° C. Plates were then washed 5 times with tap water to remove TCA, low-molecular weight metabolites and serum proteins. Sulforhodamine B (SRB) (0.4%, 50 μl) was added to each well. Following a five minute incubation at room temperature, plates were rinsed 5 times with 0.1% acetic acid and air dried. Bound dye was solubilized with 10 mM Tris Base (pH 10.5) for 5 min on a gyratory shaker. Optical density was measured at 570 nm. [drawing 4] [drawing 5] [drawing 6] [drawing 7]

Data set [2] relates to drug-resistant breast cancer cells MDA435/LCC6-MDR. Put plainly: cytostatic activity in combination with paclitaxel (SRB cell growth inhibition). The class given is cell-based. To be noted: IC50 of paclitaxel in presence or absence of compound (reversing agent 1 μM), 72 h. As for the experimental part:
Following a five minute incubation at room temperature, plates were rinsed 5 times with 0.1% acetic acid and air dried. Bound dye was solubilized with 10 mM Tris Base (pH 10.5) for 5 min on a gyratory shaker.

Each structure is given as a SMILES string.

In the case of `CC(C)=CCOc1ccc2c(C)cc(=O)oc2c1C(=O)C=Cc1cccnc1`, the IC50 at 72 h in data set [1] is above 1000 nM.
Take `CC(=O)O[C@H]1C(=O)[C@@]2(C)[C@H]([C@H](OC(=O)c3ccccc3)[C@]3(O)C[C@H](OC(=O)[C@H](O)[C@@H](NC(=O)c4ccccc4)c4ccccc4)C(C)=C1C3(C)C)[C@]1(OC(C)=O)CO[C@@H]1C[C@@H]2O` [Paclitaxel]: the IC50 in data set [2] came to 426 nM.
Regarding `C=C(C)COc1ccc2c(C)cc(=O)oc2c1C(=O)C=Cc1cccnc1` [VIB 122, 1-[4-Methyl-7-(2-methylallyloxy)coumarin8-yl]-3-(pyridine-3-yl)propen-1-one], the 50% inhibitory concentration (IC50) at 72 h in data set [1] is above 1000 nM.
